Measurements published in ChEMBL document CHEMBL1201862, “PubChem BioAssay data set” (2004).
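Grown in 96-well plates, cells were treated for 48 hours with each compound at five concentrations. Insufficient inhibition: endpoint recorded as highest concentration tested. Here, GI50 denotes the concentration required for 50% inhibition of growth.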 Activity calls are given as the source filed them. Cut-off read from the data, not from the text of the source: active = GI50 up to about 1.1 µM and inactive = higher.

What was measured:
Assay in all cases: growth of human tumour cells (NCI), 48 h
[1] = system: MCF7
[2] = system: SR
[3] = system: SF-268
[4] = system: UACC-62
[5] = system: KM12
[6] = system: A549
[7] = system: MOLT-4
[8] = system: UO-31
[9] = system: HT-29
[10] = system: MDA-N
[11] = system: HCT-15
[12] = system: SK-MEL-5
[13] = system: SK-MEL-2
[14] = system: 786-0
[15] = system: MDA-MB-231
[16] = system: SN12C
[17] = system: RXF 393
[18] = system: HOP-92
[19] = system: OVCAR-8
[20] = system: MDA-MB-435
[21] = system: Malme-3M
[22] = system: DU-145
[23] = system: NCI-H460
[24] = system: SK-OV-3
[25] = system: RPMI-8226
[26] = system: SK-MEL-28
[27] = system: HOP-62
[28] = system: NCI-H522
[29] = system: NCI-H23
[30] = system: SW-620
[31] = system: Hs-578T
[32] = system: HCT-116
[33] = system: SNB-19
[34] = system: IGROV-1
[35] = system: CAKI-1
[36] = system: COLO 205
[37] = system: EKVX
[38] = system: LOX IMVI
[39] = system: SF-295
[40] = system: ACHN
[41] = system: HCC 2998
[42] = system: K562
[43] = system: U-251
[44] = system: NCI/ADR-RES
[45] = system: CCRF-CEM
[46] = system: SNB-75
[47] = system: TK-10
[48] = system: OVCAR-5
[49] = system: M14
[50] = system: OVCAR-4
[51] = system: UACC-257
[52] = system: OVCAR-3
[53] = system: A498
[54] = system: PC-3
[55] = system: SF-539
[56] = system: NCI-H226
[57] = system: T47D
[58] = system: HL-60

Structure (SMILES): C=C1C(=O)O[C@H]2C1C[C@H](O)/C(C)=C/CC[C@@]1(C)O[C@H]21 (some centres not stated)
- GI50 [1]: 13.2 µM (inactive)
- GI50 [2]: 6.04 µM (inactive)
- GI50 [3]: 29.4 µM (inactive)
- GI50 [4]: 10.9 µM (inactive)
- GI50 [5]: 14.7 µM (inactive)
- GI50 [6]: > 100 µM (inactive)
- GI50 [7]: 2.59 µM (inactive)
- GI50 [8]: 14.8 µM (inactive)
- GI50 [9]: 23.3 µM (inactive)
- GI50 [10]: 13.7 µM (inactive)
- GI50 [11]: 12.2 µM
- GI50 [12]: 10.7 µM (inactive)
- GI50 [13]: 15.2 µM (inactive)
- GI50 [14]: 16.9 µM (inactive)
- GI50 [15]: 18.9 µM (inactive)
- GI50 [16]: 18.2 µM (inactive)
- GI50 [17]: 15 µM (inactive)
- GI50 [18]: 17.3 µM (inactive)
- GI50 [19]: 18 µM (inactive)
- GI50 [20]: 17.8 µM (inactive)
- GI50 [21]: 6.14 µM (inactive)
- GI50 [22]: 21.2 µM (inactive)
- GI50 [23]: > 10 µM (inactive)
- GI50 [24]: 36.5 µM (inactive)
- GI50 [25]: 5.2 µM (inactive)
- GI50 [26]: 23.8 µM (inactive)
- GI50 [27]: 33.7 µM (inactive)
- GI50 [28]: 1.69 µM (inactive)
- GI50 [29]: 19 µM (inactive)
- GI50 [30]: 2.09 µM (inactive)
- GI50 [31]: 23.6 µM (inactive)
- GI50 [32]: 14.8 µM (inactive)
- GI50 [33]: 60.1 µM (inactive)
- GI50 [34]: 14.8 µM (inactive)
- GI50 [35]: 14.5 µM (inactive)
- GI50 [36]: 0.782 µM (active)
- GI50 [37]: 19 µM (inactive)
- GI50 [38]: 9.29 µM (inactive)
- GI50 [39]: 31.5 µM (inactive)
- GI50 [40]: 8.38 µM (inactive)
- GI50 [41]: 14.4 µM (inactive)
- GI50 [42]: 8.53 µM (inactive)
- GI50 [43]: > 100 µM (inactive)
- GI50 [44]: 14.6 µM (inactive)
- GI50 [45]: 3.04 µM (inactive)
- GI50 [46]: 32.3 µM (inactive)
- GI50 [47]: 15.6 µM (inactive)
- GI50 [48]: 19.1 µM (inactive)
- GI50 [49]: 10.4 µM (inactive)
- GI50 [50]: 14.1 µM (inactive)
- GI50 [51]: 16.7 µM (inactive)

Structure (SMILES): CCCCCCCCCCCCCCCCOP(=O)(O)OCC(N)C(=O)O (configuration not stated)
- GI50 [2]: 33 µM (inactive)
- GI50 [3]: 18.5 µM (inactive)
- GI50 [4]: 18 µM (inactive)
- GI50 [5]: 12.6 µM (inactive)
- GI50 [52]: 17.4 µM (inactive)
- GI50 [6]: 21.9 µM (inactive)
- GI50 [7]: 11.5 µM (inactive)
- GI50 [8]: 12.9 µM (inactive)
- GI50 [9]: 33 µM (inactive)
- GI50 [10]: 23.5 µM (inactive)
- GI50 [11]: 27.7 µM
- GI50 [12]: 17.8 µM (inactive)
- GI50 [13]: 19.3 µM (inactive)
- GI50 [14]: 21.5 µM (inactive)
- GI50 [15]: 24.7 µM (inactive)
- GI50 [16]: 18.3 µM (inactive)
- GI50 [17]: 23.8 µM (inactive)
- GI50 [18]: 19.5 µM (inactive)
- GI50 [19]: 25.4 µM (inactive)
- GI50 [20]: 22.5 µM (inactive)
- GI50 [21]: 63.2 µM (inactive)
- GI50 [22]: 87.3 µM (inactive)
- GI50 [23]: 17.1 µM (inactive)
- GI50 [24]: 21.8 µM (inactive)
- GI50 [25]: 18.6 µM (inactive)
- GI50 [26]: 43.1 µM (inactive)
- GI50 [27]: 25 µM (inactive)
- GI50 [28]: 20.3 µM (inactive)
- GI50 [29]: 27 µM (inactive)
- GI50 [30]: 17 µM (inactive)
- GI50 [31]: 16.1 µM (inactive)
- GI50 [32]: 12.5 µM (inactive)
- GI50 [33]: 16.4 µM (inactive)
- GI50 [34]: 18.4 µM (inactive)
- GI50 [53]: 19.8 µM (inactive)
- GI50 [35]: 13 µM (inactive)
- GI50 [54]: 12 µM (inactive)
- GI50 [36]: 20.7 µM (inactive)
- GI50 [55]: 21.3 µM (inactive)
- GI50 [37]: 54.1 µM (inactive)
- GI50 [56]: 21 µM (inactive)
- GI50 [38]: 13.5 µM (inactive)
- GI50 [39]: 14.5 µM (inactive)
- GI50 [40]: 16.3 µM (inactive)
- GI50 [41]: 15.1 µM (inactive)
- GI50 [42]: 22.8 µM (inactive)
- GI50 [43]: 12.9 µM (inactive)
- GI50 [44]: 33.3 µM (inactive)
- GI50 [45]: 22.8 µM (inactive)
- GI50 [46]: 25.4 µM (inactive)
- GI50 [47]: 5.02 µM (inactive)
- GI50 [48]: 20.4 µM (inactive)
- GI50 [57]: 28.2 µM (inactive)
- GI50 [49]: 24.8 µM (inactive)
- GI50 [50]: 18.7 µM (inactive)
- GI50 [51]: 52.5 µM (inactive)

Structure (SMILES): CC(C)C(=O)/C=C/S/C=C/C(=O)C(C)C
- GI50 [1]: 23 µM (inactive)
- GI50 [3]: 26.2 µM (inactive)
- GI50 [4]: 9.46 µM (inactive)
- GI50 [5]: 30.3 µM (inactive)
- GI50 [52]: 3.62 µM (inactive)
- GI50 [6]: 32.3 µM (inactive)
- GI50 [8]: 4.93 µM (inactive)
- GI50 [9]: 4.09 µM (inactive)
- GI50 [11]: 3.2 µM
- GI50 [12]: 5.83 µM (inactive)
- GI50 [13]: 23.4 µM (inactive)
- GI50 [14]: 2.53 µM (inactive)
- GI50 [15]: 3.7 µM (inactive)
- GI50 [16]: 14.2 µM (inactive)
- GI50 [17]: 4.54 µM (inactive)
- GI50 [19]: 2.7 µM (inactive)
- GI50 [20]: 10.4 µM (inactive)
- GI50 [21]: 6.7 µM (inactive)
- GI50 [22]: 13.4 µM (inactive)
- GI50 [23]: 10.8 µM (inactive)
- GI50 [24]: 41.8 µM (inactive)
- GI50 [26]: 4.28 µM (inactive)
- GI50 [27]: 21.2 µM (inactive)
- GI50 [28]: 1.19 µM (inactive)
- GI50 [29]: 2.59 µM (inactive)
- GI50 [30]: 3.33 µM (inactive)
- GI50 [31]: 21.6 µM (inactive)
- GI50 [32]: 1.69 µM (inactive)
- GI50 [33]: 28.3 µM (inactive)
- GI50 [34]: 19.5 µM (inactive)
- GI50 [35]: 3.56 µM (inactive)
- GI50 [36]: 2.94 µM (inactive)
- GI50 [55]: 16.8 µM (inactive)
- GI50 [37]: 5 µM (inactive)
- GI50 [56]: 7 µM (inactive)
- GI50 [38]: 3.31 µM (inactive)
- GI50 [39]: 34.9 µM (inactive)
- GI50 [40]: 2.24 µM (inactive)
- GI50 [43]: 18.6 µM (inactive)
- GI50 [44]: 2.83 µM (inactive)
- GI50 [46]: 45.1 µM (inactive)
- GI50 [47]: > 100 µM (inactive)
- GI50 [48]: 5.27 µM (inactive)
- GI50 [57]: 5.16 µM (inactive)
- GI50 [49]: 3.92 µM (inactive)
- GI50 [50]: 6.17 µM (inactive)
- GI50 [51]: 2.72 µM (inactive)

Structure (SMILES): CCOC(=O)N1CCC2C(=C(C)C(C)C3=C2C(=O)c2ccccc2C3=O)C1 (configuration not stated)
- GI50 [1]: 4.21 µM (inactive)
- GI50 [2]: 3.8 µM (inactive)
- GI50 [3]: > 10 µM (inactive)
- GI50 [4]: 4.41 µM (inactive)
- GI50 [5]: 5.81 µM (inactive)
- GI50 [6]: 4.3 µM (inactive)
- GI50 [7]: 4.6 µM (inactive)
- GI50 [9]: 4.07 µM (inactive)
- GI50 [10]: 3.33 µM (inactive)
- GI50 [11]: 3.88 µM
- GI50 [12]: 1.77 µM (inactive)
- GI50 [14]: 4.61 µM (inactive)
- GI50 [15]: 4.07 µM (inactive)
- GI50 [16]: 3.86 µM (inactive)
- GI50 [17]: > 10 µM (inactive)
- GI50 [18]: 5.41 µM (inactive)
- GI50 [19]: 6.18 µM (inactive)
- GI50 [20]: 2.25 µM (inactive)
- GI50 [21]: 1.82 µM (inactive)
- GI50 [22]: 2.45 µM (inactive)
- GI50 [24]: > 10 µM (inactive)
- GI50 [25]: 3.79 µM (inactive)
- GI50 [26]: 5.05 µM (inactive)
- GI50 [27]: 4.1 µM (inactive)
- GI50 [29]: 2.76 µM (inactive)
- GI50 [30]: 3.61 µM (inactive)
- GI50 [34]: > 10 µM (inactive)
- GI50 [35]: 4.73 µM (inactive)
- GI50 [54]: 4.4 µM (inactive)
- GI50 [36]: 3.33 µM (inactive)
- GI50 [37]: > 10 µM (inactive)
- GI50 [38]: 3.61 µM (inactive)
- GI50 [39]: 3.82 µM (inactive)
- GI50 [41]: 5.19 µM (inactive)
- GI50 [42]: 3.08 µM (inactive)
- GI50 [45]: 9.44 µM (inactive)
- GI50 [46]: 3.75 µM (inactive)
- GI50 [58]: 2.07 µM (inactive)
- GI50 [47]: > 10 µM (inactive)
- GI50 [57]: 9.55 µM (inactive)
- GI50 [49]: 4.73 µM (inactive)
- GI50 [50]: > 10 µM (inactive)
- GI50 [51]: 3.29 µM (inactive)
